From patent US8658670B2 (Crestone, Inc., priority 2006, dated 2014)

Legend:
[1] = test system: C. difficile strain ATCC43255 toxin A; assay: Toxin A production in high cell density stationary phase cultures (ELIFA); type: cell-based; conditions: 4 day old stationary phase cultures
Description: C. difficile strain ATCC43255 was grown and maintained anaerobically on CDC anaerobe agar (Remel, Lenexa, Kans.). To test the effect of antibacterial agents on growth, cells were grown anaerobically for 40 h at 35° C. in 96-well brain heart infusion (BHI) broth cultures, with an initial inoculum of 10^6 CFU/mL. To test the effect of antibacterial agents on toxin production at high C. difficile cell densities, the cells were grown anaerobically for 24 h at 35° C. in 96-well brain heart infusion (BHI) broth cultures. Spent medium was then replaced with fresh broth containing MetRS inhibitors and control agents at a concentration range of 0.015-16 μg/mL. After 4 days, growth and cell viability were monitored by optical density measurements at 595 nm and by culture on CDC anaerobe agar, respectively. Culture supernatants were collected, and toxin A was detected by ELIFA (enzyme-linked immuno-flow assay) using an anti toxin A monoclonal antibody (Novus Biologicals, Centennial, Colo.).

[2] = test system: C. difficile; assay: C. difficile-infected hamster survival study; type: in vivo, hamsters
Description: Animal studies were performed to determine the efficacy of MetRS inhibitors for treating C. difficile-infections. The MetRS inhibitors tested were two compounds of formula (II), 5-[3-((R)-6,8-Dibromo-chroman-4-ylamino)-propylamino]-4H-thieno[3,2-b]pyridine-7-one (both racemic mixture and the R enantiomer) and 5-[3-((R)-8-Bromo-6-chloro-chroman-4-ylamino)-propylamino]-4H-thieno[3,2-b]pyridin-7-one. Also tested was a compound of formula (IV), 2-(3-{3,5-Dibromo-2-[2-(4-methyl-thiazol-5-yl)-ethoxy]-benzylamino}-propylamino)-1H-quinolin-4-one.
Results were compared to C. difficile-infected hamsters treated with the conventional antibiotic, vancomycin. Infected hamsters were treated with either a solution or suspension of a MetRS inhibitor at 5 to 50 mg/kg or vancomycin at 2.5, 5 or 25 mg/kg. There were eight hamsters per group with the final endpoint of the experiment being survival. Expired hamsters were examined for GI condition.

[3] = test system: clinical isolates of C. difficile; assay: Sporulation of C. difficile clinical isolates; type: cell-based

Cl.Cl.Cl.O=c1cc(NCCCNC2CCNc3c(Br)cc(Br)cc32)[nH]c2ccsc12 (stereo not drawn) [5-[3-(6,8-Dibromo-1,2,3,4-tetrahydro-quinolin-4-ylamino)-propylamino]-4H-thieno[3,2-b]pyridin-7-one tri-hydrochloride]
concentration inhibiting toxin production [1]: 0.25 µg/mL

Cc1ncsc1CCOc1c(Br)cc(Br)cc1CNCCCNc1cc(=O)c2sccc2[nH]1
concentration inhibiting toxin production [1]: 0.25 µg/mL

CN[C@H](CC(C)C)C(=O)N[C@H]1C(=O)N[C@@H](CC(N)=O)C(=O)N[C@H]2C(=O)N[C@H]3C(=O)N[C@H](C(=O)N[C@H](C(=O)O)c4cc(O)cc(O)c4-c4cc3ccc4O)[C@H](O)c3ccc(c(Cl)c3)Oc3cc2cc(c3O[C@@H]2O[C@H](CO)[C@@H](O)[C@H](O)[C@H]2O[C@H]2C[C@](C)(N)[C@H](O)[C@H](C)O2)Oc2ccc(cc2Cl)[C@H]1O [vancomycin, reference compound]
survival ([2]; Day 28, vancomycin treatment (2.5, 5 or 25 mg/kg)): 0-10%

O=c1cc(NCCCN[C@@H]2CCOc3c(Br)cc(Br)cc32)[nH]c2ccsc12 [5-[3-((R)-6,8-Dibromo-chroman-4-ylamino)-propylamino]-4H-thieno[3,2-b]pyridine-7-one]
efficacy ranking among tested MetRS inhibitors ([2]; infected hamsters, survival): best efficacy | spores (ratio of spores to total cells) ([3]; 0.25×MIC, 96 hours, all strains): < 2% | spores (ratio of spores to total cells) ([3]; 0.5×MIC, 96 hours, all strains): < 1%

Cl.Cl.O=c1cc(NCCCN[C@@H]2CCOc3c(Br)cc(Br)cc32)[nH]c2ccsc12 [R-(+)-5-[3-(6,8-Dibromo-chroman-4-ylamino)-propylamino]-4H-thieno[3,2-b]pyridin-7-one di-hydrochloride]
concentration inhibiting toxin production [1]: 0.25 µg/mL

Cc1ncc([N+](=O)[O-])n1CCO [metronidazole, reference compound]
spores (ratio of spores to total cells) ([3]; subMIC concentrations, all tested strains): up to 100%

O=c1cc(NCCCNC2CCOc3c(Br)cc(Br)cc32)[nH]c2ccsc12 (stereo not drawn) [5-[3-(6,8-Dibromo-chroman-4-ylamino)-propylamino]-4H-thieno[3,2-b]pyridin-7-one]
concentration inhibiting toxin production [1]: 0.25 µg/mL
